From patent US20230393140A1, “BINDING ASSAYS INVOLVING A PLURALITY OF SYNTHETIC COMPOUNDS, TARGETS, AND COUNTER TARGETS” (SRI International, priority 2020, published 2023) come the findings set out here.

SMILES strings stand for the structures. Where two headings read alike, the source gives them in different places. Numbered stars: 1 amine (or outer) side, 2 acyl side, 3 side chain; on linkers, the order of the positions; unused ones are H or OH. Square brackets hold non-standard residues; d marks the D form. Peptide text beside a SMILES is read from it. * marks the point of attachment. 5FAM = O=C1OC2(c3ccc(O)cc3Oc3cc(O)ccc32)c2ccc(C(=O)*)cc21; NHCH2C6H4(4-CH2CONH2) = NC(=O)Cc1ccc(CN*)cc1; X1 = O=C(Cc1ccc(CN[*:1])cc1)[*:2]

This assay addresses T1, IL-6R (Homo sapiens, UniProt P08887).
T1 construct: purchased Creative Biomart IL6R-584H
T1 sequence (P08887 20-355 limits assumed): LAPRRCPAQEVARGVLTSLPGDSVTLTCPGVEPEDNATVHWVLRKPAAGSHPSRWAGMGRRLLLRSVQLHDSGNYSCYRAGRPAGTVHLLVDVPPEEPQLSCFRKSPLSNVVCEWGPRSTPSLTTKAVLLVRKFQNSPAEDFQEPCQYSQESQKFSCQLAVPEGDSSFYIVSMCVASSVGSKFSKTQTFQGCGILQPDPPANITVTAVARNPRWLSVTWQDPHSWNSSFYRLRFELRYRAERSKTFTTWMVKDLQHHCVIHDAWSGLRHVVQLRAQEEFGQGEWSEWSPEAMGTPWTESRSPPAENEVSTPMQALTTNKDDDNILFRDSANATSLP
Briefly: MST binding affinity of resynthesized NNP hits to IL-6R. The note with it: MST, NNP2 library hit, target SIL-6R, one-site binding model. As to the method:
Hit binding affinity to various targets were determined using Microscale Thermophoresis (MST). MST experiments were performed on a Monolith NT.115pico (NanoTemper Technologies GmbH, Munich, Germany). Measurements were performed at room temperature, in triplicate with incubation periods of 15, 30 and 45 minutes. […] Targets were labeled using Nanotemper Monolith 2nd Generation Protein Labeling Kits. RED-MALEIMIDE (Maleimide-647-dye) labeling kit was used for K-Ras and RED-NHS (NHS-647-dye) labeling kit was used for IL-6, IL-6R, TNFα and ASGPR. The buffer for the ASGPR contained 20 mM HEPES pH 7.4, 150 mM NaCl, 10 mM MgCl2, 2 mM CaCl2, 0.05% Pluronic F-127, and 1 mM DTT; for IL-6 contained 20 mM HEPES pH 7.4, 150 mM KCl, 10 mM MgCl2, and 0.1% Pluronic F-127; for the soluble IL-6 receptor 20 mM HEPES pH 7.4, 150 mM NaCl, 10 mM MgCl2, and 0.05% Tween-20; for K-Ras 20 mM HEPES pH 7.4, 150 mM NaCl, 10 mM MgCl2, 0.05% Tween-20 and 1 mM DTT; for TNFα 10 mM HEPES pH 7.4, 150 mM NaCl, 10 mM MgCl2, 0.05% Polysorbate-20. Triplicate data was analyzed using MO.AffinityAnalysis software (NanoTemper Technologies GmbH).

[1] abbreviates: read-out: KD (nM) [95% conf. int].

For `CC(C)C[C@H](NC(=O)[C@@H](CCCNC(=N)N)NC(=O)[C@@H](C)NC(=O)Cc1ccc(CNC(=O)[C@H](C)NC(=O)[C@@H](Cc2c[nH]c3ccccc23)NC(=O)[C@@H](CCC(=O)O)NC(=O)Cc2ccc(CNC(=O)[C@H](Cc3ccccc3)NC(=O)[C@@H](CCCCN)NC(=O)[C@@H](CCC(=O)O)NC(=O)Cc3ccc(CNC(=O)[C@H](CC(C)C)NC(=O)[C@@H](CCC(=O)O)NC(=O)[C@@H](CCCCN)NC(=O)Cc4ccc(CNC(=O)[C@H](CC(C)C)NC(=O)[C@H](NC(=O)[C@@H](CC(N)=O)NC(=O)Cc5ccc(CNC(=O)[C@@H](NC(=O)[C@@H](CC(N)=O)NC(=O)[C@H]6CCCN6C(=O)Cc6ccc(CNC(=O)[C@H](Cc7ccccc7)NC(=O)[C@@H](Cc7c[nH]c8ccccc78)NC(=O)[C@@H](CCCNC(=N)N)NC(=O)c7ccc8c(c7)C(=O)OC87c8ccc(O)cc8Oc8cc(O)ccc87)cc6)C(C)C)cc5)[C@H](C)O)cc4)cc3)cc2)cc1)C(=O)NCc1ccc(CC(=O)N[C@H](CCC(=O)O)C(=O)N[C@H](CCCNC(=N)N)C(=O)N[C@H](C(=O)NCc2ccc(CC(=O)N[C@H](Cc3ccccc3)C(=O)N[C@H](CCCCN)C(=O)NCC(=O)NCc3ccc(CC(N)=O)cc3)cc2)C(C)C)cc1` [IL6R-87-1, Fluorescein-(D)Arg-(D)Trp-(L)Phe-PAM-(D)Pro-(D)Asn-(L)Val-PAM-(D)Asn-(D)Thr-(L)Leu-PAM-(D)Lys-(D)Glu-(L)Leu-PAM-(D)Glu-(D)Lys-(L)Phe-PAM-(D)Glu-(D)Trp-(L)Ala-PAM-(D)Ala-(D)Arg- (L)Leu-PAM-(D)Glu-(D)Arg-(L)Val-PAM-(D)Phe-(D)Lys-Gly-PAM] (5FAM-[dR][dW]F[X1][dP][dN]V[X1][dN][dT]L[X1][dK][dE]L[X1][dE][dK]F[X1][dE][dW]A[X1][dA][dR]L[X1][dE][dR]V[X1][dF][dK]G-{NHCH2C6H4(4-CH2CONH2)}), the Kd was determined as 1.2 nM. For the compound `CC(C)C[C@H](NC(=O)[C@@H](CCCNC(=N)N)NC(=O)[C@@H](C)NC(=O)Cc1ccc(CNC(=O)[C@H](CC(C)C)NC(=O)[C@@H](CCCNC(=N)N)NC(=O)[C@@H](CCC(=O)O)NC(=O)Cc2ccc(CNC(=O)[C@H](Cc3ccccc3)NC(=O)[C@@H](CCCCN)NC(=O)[C@@H](CCC(=O)O)NC(=O)Cc3ccc(CNC(=O)[C@H](CC(C)C)NC(=O)[C@@H](CCC(=O)O)NC(=O)[C@@H](CCCCN)NC(=O)Cc4ccc(CNC(=O)[C@H](CC(C)C)NC(=O)[C@H](NC(=O)[C@@H](CC(N)=O)NC(=O)Cc5ccc(CNC(=O)[C@H](Cc6ccccc6)NC(=O)[C@@H](CO)NC(=O)[C@@H](CCC(=O)O)NC(=O)Cc6ccc(CNC(=O)[C@H](CC(C)C)NC(=O)[C@@H](CC(C)C)NC(=O)[C@@H](Cc7ccc(O)cc7)NC(=O)c7ccc8c(c7)C(=O)OC87c8ccc(O)cc8Oc8cc(O)ccc87)cc6)cc5)[C@H](C)O)cc4)cc3)cc2)cc1)C(=O)NCc1ccc(CC(=O)N[C@H](Cc2c[nH]c3ccccc23)C(=O)N[C@H](CCCCN)C(=O)N[C@@H](CC(C)C)C(=O)NCc2ccc(CC(=O)N[C@H](Cc3ccccc3)C(=O)N[C@H](CCCCN)C(=O)NCC(=O)NCc3ccc(CC(N)=O)cc3)cc2)cc1` [IL6R-87-2] (5FAM-[dY][dL]L[X1][dE][dS]F[X1][dN][dT]L[X1][dK][dE]L[X1][dE][dK]F[X1][dE][dR]L[X1][dA][dR]L[X1][dW][dK]L[X1][dF][dK]G-{NHCH2C6H4(4-CH2CONH2)}), the Kd under setting [1] came out at 0.8 nM. As to `CC(C)C[C@H](NC(=O)[C@@H](CCCNC(=N)N)NC(=O)[C@@H](C)NC(=O)Cc1ccc(CNC(=O)[C@H](CC(C)C)NC(=O)[C@@H](CCCNC(=N)N)NC(=O)[C@@H](CCC(=O)O)NC(=O)Cc2ccc(CNC(=O)[C@H](C)NC(=O)[C@@H](CCCCN)NC(=O)[C@@H](Cc3ccc(O)cc3)NC(=O)Cc3ccc(CNC(=O)[C@H](Cc4ccccc4)NC(=O)[C@@H](CC(N)=O)NC(=O)[C@@H](Cc4ccc(O)cc4)NC(=O)Cc4ccc(CNC(=O)[C@H](CC(C)C)NC(=O)[C@H](NC(=O)[C@@H](CC(N)=O)NC(=O)Cc5ccc(CNC(=O)[C@H](Cc6ccccc6)NC(=O)[C@@H](CO)NC(=O)[C@@H](CCC(=O)O)NC(=O)Cc6ccc(CNC(=O)[C@H](Cc7ccccc7)NC(=O)[C@@H](Cc7c[nH]c8ccccc78)NC(=O)[C@@H](CCCNC(=N)N)NC(=O)c7ccc8c(c7)C(=O)OC87c8ccc(O)cc8Oc8cc(O)ccc87)cc6)cc5)[C@H](C)O)cc4)cc3)cc2)cc1)C(=O)NCc1ccc(CC(=O)N[C@H](CCC(=O)O)C(=O)N[C@H](CCCNC(=N)N)C(=O)N[C@H](C(=O)NCc2ccc(CC(=O)N[C@H](Cc3ccccc3)C(=O)N[C@H](CCCCN)C(=O)NCC(=O)NCc3ccc(CC(N)=O)cc3)cc2)C(C)C)cc1` [IL6R-87-3, Fluorescein-(D)Arg-(D)Trp-(L)Phe-PAM-(D)Glu-(D)Ser-(L)Phe-PAM-(D)Asn-(D)Thr-(L)Leu-PAM-(D)Tyr-(D)Asn-(L)Phe-PAM-(D)Tyr-(D)Lys-(L)Ala-PAM-(D)Glu-(D)Arg-(L)Leu-PAM-(D)Ala-(D)Arg- (L)Leu-PAM-(D)Glu-(D)Arg-(L)Val-PAM-(D)Phe-(D)Lys-Gly-PAM] (5FAM-[dR][dW]F[X1][dE][dS]F[X1][dN][dT]L[X1][dY][dN]F[X1][dY][dK]A[X1][dE][dR]L[X1][dA][dR]L[X1][dE][dR]V[X1][dF][dK]G-{NHCH2C6H4(4-CH2CONH2)}), the affinity, expressed as Kd, was 19 nM.

On to `CC(C)C[C@H](NC(=O)[C@@H](CCCNC(=N)N)NC(=O)[C@@H](C)NC(=O)Cc1ccc(CNC(=O)[C@H](Cc2ccccc2)NC(=O)[C@@H](CCC(=O)O)NC(=O)[C@H]2CCCN2C(=O)Cc2ccc(CNC(=O)[C@@H](NC(=O)[C@@H](CCCNC(=N)N)NC(=O)[C@@H](Cc3c[nH]c4ccccc34)NC(=O)Cc3ccc(CNC(=O)[C@H](CC(C)C)NC(=O)[C@@H](CCC(=O)O)NC(=O)[C@@H](CCCCN)NC(=O)Cc4ccc(CNC(=O)[C@H](Cc5ccccc5)NC(=O)[C@@H](CO)NC(=O)[C@@H](CCCNC(=N)N)NC(=O)Cc5ccc(CNC(=O)[C@H](Cc6ccccc6)NC(=O)[C@@H](CO)NC(=O)[C@@H](CCC(=O)O)NC(=O)Cc6ccc(CNC(=O)[C@H](Cc7ccccc7)NC(=O)[C@H](NC(=O)[C@@H](CC(N)=O)NC(=O)c7ccc8c(c7)C(=O)OC87c8ccc(O)cc8Oc8cc(O)ccc87)C(C)C)cc6)cc5)cc4)cc3)C(C)C)cc2)cc1)C(=O)NCc1ccc(CC(=O)N2CCC[C@@H]2C(=O)N[C@H](CCCNC(=N)N)C(=O)N[C@@H](C)C(=O)NCc2ccc(CC(=O)N[C@H](Cc3ccccc3)C(=O)N[C@H](CCCNC(=N)N)C(=O)NCC(=O)NCc3ccc(CC(N)=O)cc3)cc2)cc1` [IL6R-87-4] (5FAM-[dN][dV]F[X1][dE][dS]F[X1][dR][dS]F[X1][dK][dE]L[X1][dW][dR]V[X1][dP][dE]F[X1][dA][dR]L[X1][dP][dR]A[X1][dF][dR]G-{NHCH2C6H4(4-CH2CONH2)}), for which the Kd under setting [1] stood at 22 nM.

For `CC(C)C[C@H](NC(=O)[C@@H](CCCNC(=N)N)NC(=O)[C@@H](C)NC(=O)Cc1ccc(CNC(=O)[C@H](CC(C)C)NC(=O)[C@@H](CCCNC(=N)N)NC(=O)[C@@H](CCC(=O)O)NC(=O)Cc2ccc(CNC(=O)[C@@H](NC(=O)[C@@H](C)NC(=O)CNC(=O)Cc3ccc(CNC(=O)[C@@H](NC(=O)[C@@H](CCCNC(=N)N)NC(=O)[C@H]4CCCN4C(=O)Cc4ccc(CNC(=O)[C@H](CC(C)C)NC(=O)[C@H](NC(=O)[C@@H](CC(N)=O)NC(=O)Cc5ccc(CNC(=O)[C@H](CC(C)C)NC(=O)[C@@H](CCCNC(=N)N)NC(=O)[C@@H](CC(C)C)NC(=O)Cc6ccc(CNC(=O)[C@H](Cc7ccccc7)NC(=O)[C@@H](Cc7c[nH]c8ccccc78)NC(=O)[C@@H](CCCNC(=N)N)NC(=O)c7ccc8c(c7)C(=O)OC87c8ccc(O)cc8Oc8cc(O)ccc87)cc6)cc5)[C@H](C)O)cc4)C(C)C)cc3)C(C)C)cc2)cc1)C(=O)NCc1ccc(CC(=O)N2CCC[C@@H]2C(=O)N[C@H](CCCNC(=N)N)C(=O)N[C@@H](C)C(=O)NCc2ccc(CC(=O)N[C@H](Cc3ccccc3)C(=O)N[C@H](CCCNC(=N)N)C(=O)NCC(=O)NCc3ccc(CC(N)=O)cc3)cc2)cc1` [IL6R-87-5, Fluorescein-(D)Arg-(D)Trp-(L)Phe-PAM-(D)Leu-(D)Arg-(L)Leu-PAM-(D)Asn-(D)Thr-(L)Leu-PAM-(D)Pro-(D)Arg-(L)Val-PAM-Gly-(D)Ala-(L)Val-PAM-(D)Glu-(D)Arg-(L)Leu-PAM-(D)Ala-(D)Arg-(L)Leu- PAM-(D)Pro-(D)Arg-(L)Ala-PAM-(D)Phe-(D)Arg-Gly-PAM] (5FAM-[dR][dW]F[X1][dL][dR]L[X1][dN][dT]L[X1][dP][dR]V[X1]G[dA]V[X1][dE][dR]L[X1][dA][dR]L[X1][dP][dR]A[X1][dF][dR]G-{NHCH2C6H4(4-CH2CONH2)}), the affinity, expressed as Kd, was 330 nM.
